Measured values published in US20090247455A1, “Isolation of Inhibitors of IRES-Mediated Translation” (priority 2005, published 2009).

Tested on: HEK293 cells comprising the pcDNA3-red-HCVIRES-gpt vector
Experiment: Growth of HEK293 cells with the IRES-gpt construct versus control cells in 6-thioxanthine (OD 590 nm)
Assay type: cell-based
Settings: 100 μM, up to 9 days, OD at days 2, 6 and 9, versus control cells
Protocol: FIG. 3 is a graphical representation showing the growth of HEK293 cells comprising a construct in which a gpt gene is placed under the control of a HCV IRES or control cells grown in the presence or absence of 6-thioxanthine (100 μM). The number of days of 6-thioxanthine treatment is indicated on the X-axis. The optical density at 590 nm of the tissue culture flask containing the cells is shown on the Y-axis. […] The OD590 of cells comprising the IRES-gpt construct grown in the absence of 6-thioxanthine are represented by solid squares and dashed line. The OD590 of cells comprising the IRES-gpt construct grown in the presence of 6-thioxanthine are represented by solid squares and solid line.
Cells were also screened to determine those capable of expressing gpt under the control of HCV IRES. Briefly, transfected cells or control cells were maintained either in the absence or presence of 6-thioxanthine (100 μM) for up to 9 days. To determine any change in cell number an optical density measurement was performed at 590 nm at days 2, 6 and 9 after the addition of 6-thioxanthine to the relevant cells.

For `O=c1[nH]c(=S)c2[nH]cnc2[nH]1` [6-thioxanthine], the “susceptibility of cells to 6-thioxanthine selection (optical density at 590 nm)” value was “considerably more susceptible”.
